Patent US8920832B2, “Composition for nucleic acid transfection” (Hokkaido System Science Co., Ltd., priority 2006, dated 2014)

How the values were obtained:
HeLa cells [1] = experiment: Cytotoxicity score under microscope after DNA transfection, HeLa cells; format: cell-based
Description: (§3) HeLa cells were inoculated into a 96-well plate (7,500 cells/100 μL/well), followed by culturing for about 24 hours. DNA (pCMV-SPORT-βgal) was diluted with a DMEM medium, to thereby prepare a DNA-diluted solution having a DNA concentration of 8 μg/mL (for the case of 200 ng/well). […] The thus-obtained solution or Lipofectamine 2000 as a positive control (product of Invitrogen) was diluted with a DMEM medium so that the amount of the reconstituted liposome solution or Lipofectamine 2000 added to cells was “Amount of liposomes added (μL/well)” shown in Table 9 or 10. Immediately after dilution, the DNA-diluted solution (25 μL) was added to and mixed with the liposome-diluted solution (25 μL), and the mixture was allowed to stand still at room temperature for 30 minutes, to thereby form a DNA/liposome complex. The DNA/liposome complex (50 μL) was added to the inoculated HeLa cells (about 70 to about 90% confluent), to thereby initiate transfection. After culturing at 37° C. and 5% CO2 for one hour, a 10% FBS/DMEM medium (100 μL) was added to the culture liquid, followed by culturing at 37° C. and 5% CO2 for about 21 hours.
(§4) Each of the enhancers shown in Table 13 was diluted with a DMEM medium to different concentrations so that the amount of the enhancer finally added to cells was “Enhancer amount (μg/well)” shown in Table 13. […] The thus-diluted liposome solution was added to an equiamount of the above-diluted enhancer, followed by incubation at room temperature for 20 minutes. […] Subsequently, cytotoxicity was evaluated according to the aforementioned scores, and determination of β-gal activity, quantitative determination of protein, and viable cell counting were carried out.

HeLa cells [2] = experiment: DNA (pCMV-SPORT-βgal) transfection into HeLa cells: β-gal activity; details: for β-gal activity: HeLa; for effect of enhancer on nucleic-acid-transfecting performance and cytotoxicity, in words: enhancer added to liposome solution of Formulation Example 4, summary of Tables 13 and 14 (HeLa and HT1080)
Description: as §3
The culture supernatant was removed, and the cells were washed with PBS(−). Thereafter, determination of β-galactosidase (hereinafter may be abbreviated as “β-gal”) activity, quantitative determination of protein, and viable cell counting were carried out as described below.
After complete removal of PBS through suction, a lysis buffer (30 μL) was added to the cells, and the mixture was stirred and then allowed to stand still at −80° C. for 30 minutes or longer for freezing. After rapid thawing in a water bath at 37° C., the mixture was again allowed to stand still at −80° C. for 30 minutes or longer for freezing, followed by rapid thawing in a water bath at 37° C. Thereafter, centrifugation was carried out (2,000 g×10 minutes), and the resultant supernatant (sample) (10 μL) was added to a 96-well microplate.
Determination of β-gal activity was carried out by means of a β-gal assay kit (product of Invitrogen). […] A 2-Me-containing cleavage buffer was added (50 μL/well) to the sample or each of the standard-diluted solutions (10 μL), and 4 mg/mL aqueous ONPG solution was added (17 μL/well), followed by incubation at 37° C. for 30 minutes. After completion of incubation, a stop buffer was added (120 μL/well) for termination of reaction, and absorbance was measured at 405 nm.
as §4

HT1080 cells [3] = experiment: Cytotoxicity score under microscope after DNA transfection, HT1080 cells; format: cell-based; design: scale not given here
From the text: (§1) The procedure of Test Example 5 was repeated, except that HeLa cells were replaced with HT1080 cells.
(§2) The procedure of Test Example 7 was repeated, except that HeLa cells were replaced with HT1080 cells.

HT1080 cells [4] = experiment: DNA (pCMV-SPORT-βgal) transfection into HT1080 cells: β-gal activity; format: cell-based
From the text: as §1, §2

[5] = Formulation Example 4 0.38 μL/well, enhancer 0.00625 μg/well
[6] = Formulation Example 4 0.38 μL/well, enhancer 0.0125 μg/well
[7] = Formulation Example 4 0.38 μL/well, enhancer 0.025 μg/well
[8] = Formulation Example 4 0.38 μL/well, enhancer 0.05 μg/well
[9] = Formulation Example 4 0.38 μL/well, enhancer 0.1 μg/well
[10] = Formulation Example 4 0.75 μL/well, enhancer 0.00625 μg/well
[11] = Formulation Example 4 0.75 μL/well, enhancer 0.0125 μg/well
[12] = Formulation Example 4 0.75 μL/well, enhancer 0.025 μg/well
[13] = Formulation Example 4 0.75 μL/well, enhancer 0.05 μg/well
[14] = Formulation Example 4 0.75 μL/well, enhancer 0.1 μg/well
[15] = Formulation Example 4 0.38 μL/well, enhancer 6.25 μg/well
[16] = Formulation Example 4 0.38 μL/well, enhancer 12.5 μg/well
[17] = Formulation Example 4 0.38 μL/well, enhancer 25 μg/well
[18] = Formulation Example 4 0.38 μL/well, enhancer 50 μg/well
[19] = Formulation Example 4 0.38 μL/well, enhancer 100 μg/well
[20] = Formulation Example 4 0.75 μL/well, enhancer 6.25 μg/well
[21] = Formulation Example 4 0.75 μL/well, enhancer 12.5 μg/well
[22] = Formulation Example 4 0.75 μL/well, enhancer 25 μg/well
[23] = Formulation Example 4 0.75 μL/well, enhancer 50 μg/well
[24] = Formulation Example 4 0.75 μL/well, enhancer 100 μg/well
[25] = Formulation Example 4 0.38 μL/well, enhancer 0.625 μg/well
[26] = Formulation Example 4 0.38 μL/well, enhancer 1.25 μg/well
[27] = Formulation Example 4 0.38 μL/well, enhancer 2.5 μg/well
[28] = Formulation Example 4 0.38 μL/well, enhancer 5 μg/well
[29] = Formulation Example 4 0.38 μL/well, enhancer 10 μg/well
[30] = Formulation Example 4 0.75 μL/well, enhancer 0.625 μg/well
[31] = Formulation Example 4 0.75 μL/well, enhancer 1.25 μg/well
[32] = Formulation Example 4 0.75 μL/well, enhancer 2.5 μg/well
[33] = Formulation Example 4 0.75 μL/well, enhancer 5 μg/well
[34] = Formulation Example 4 0.75 μL/well, enhancer 10 μg/well

pronectin
Cytotoxicity score (HeLa cells [1]; [5]): 2.0
Cytotoxicity score (HeLa cells [1]; [6]): 2.0
Cytotoxicity score (HeLa cells [1]; [7]): 2.0
Cytotoxicity score (HeLa cells [1]; [8]): 1.5
Cytotoxicity score (HeLa cells [1]; [9]): 2.0
Cytotoxicity score (HeLa cells [1]; [10]): 4.0
Cytotoxicity score (HeLa cells [1]; [11]): 3.5
Cytotoxicity score (HeLa cells [1]; [12]): 3.5
Cytotoxicity score (HeLa cells [1]; [13]): 3.0
Cytotoxicity score (HeLa cells [1]; [14]): 3.0
β-gal activity (HeLa cells [2]; [5]): 23.3 mU/well
β-gal activity (HeLa cells [2]; [6]): 19.4 mU/well
β-gal activity (HeLa cells [2]; [7]): 15.5 mU/well
β-gal activity (HeLa cells [2]; [8]): 3.2 mU/well
β-gal activity (HeLa cells [2]; [9]): 0.8 mU/well
β-gal activity (HeLa cells [2]; [10]): 28.7 mU/well
β-gal activity (HeLa cells [2]; [11]): 25.1 mU/well
β-gal activity (HeLa cells [2]; [12]): 16.2 mU/well
β-gal activity (HeLa cells [2]; [13]): 6.2 mU/well
β-gal activity (HeLa cells [2]; [14]): 2.3 mU/well
effect of enhancer on nucleic-acid-transfecting performance and cytotoxicity, in words (HeLa cells [2]): excellent effects
Cytotoxicity score (HT1080 cells [3]; [5]): 1.5
Cytotoxicity score (HT1080 cells [3]; [6]): 1.0
Cytotoxicity score (HT1080 cells [3]; [7]): 0.5
Cytotoxicity score (HT1080 cells [3]; [8]): 1.0
Cytotoxicity score (HT1080 cells [3]; [9]): 1.0
Cytotoxicity score (HT1080 cells [3]; [10]): 3.0
Cytotoxicity score (HT1080 cells [3]; [11]): 3.0
Cytotoxicity score (HT1080 cells [3]; [12]): 2.5
Cytotoxicity score (HT1080 cells [3]; [13]): 2.5
Cytotoxicity score (HT1080 cells [3]; [14]): 2.0
β-gal activity (HT1080 cells [4]; [5]): 87.2 mU/well
β-gal activity (HT1080 cells [4]; [6]): 70.2 mU/well
β-gal activity (HT1080 cells [4]; [7]): 52.0 mU/well
β-gal activity (HT1080 cells [4]; [8]): 3.3 mU/well
β-gal activity (HT1080 cells [4]; [9]): 0.3 mU/well
β-gal activity (HT1080 cells [4]; [10]): 102.6 mU/well
β-gal activity (HT1080 cells [4]; [11]): 107.3 mU/well
β-gal activity (HT1080 cells [4]; [12]): 92.1 mU/well
β-gal activity (HT1080 cells [4]; [13]): 16.0 mU/well
β-gal activity (HT1080 cells [4]; [14]): 4.4 mU/well

NCCCNCCCCNCCCN [Spermine]
Cytotoxicity score (HeLa cells [1]; [15]): 0.0
Cytotoxicity score (HeLa cells [1]; [16]): 0.0
Cytotoxicity score (HeLa cells [1]; [17]): 0.0
Cytotoxicity score (HeLa cells [1]; [18]): 2.0
Cytotoxicity score (HeLa cells [1]; [19]): 2.0
Cytotoxicity score (HeLa cells [1]; [20]): 4.0
Cytotoxicity score (HeLa cells [1]; [21]): 4.0
Cytotoxicity score (HeLa cells [1]; [22]): 4.0
Cytotoxicity score (HeLa cells [1]; [23]): 4.0
Cytotoxicity score (HeLa cells [1]; [24]): 2.0
β-gal activity (HeLa cells [2]; [15]): 0.8 mU/well
β-gal activity (HeLa cells [2]; [16]): 1.0 mU/well
β-gal activity (HeLa cells [2]; [17]): 0.2 mU/well
β-gal activity (HeLa cells [2]; [18]): 0.2 mU/well
β-gal activity (HeLa cells [2]; [19]): 0.1 mU/well
β-gal activity (HeLa cells [2]; [20]): 1.8 mU/well
β-gal activity (HeLa cells [2]; [21]): 0.1 mU/well
β-gal activity (HeLa cells [2]; [22]): 0.0 mU/well
β-gal activity (HeLa cells [2]; [23]): 0.1 mU/well
β-gal activity (HeLa cells [2]; [24]): 0.3 mU/well
Cytotoxicity score (HT1080 cells [3]; [15]): 2.5
Cytotoxicity score (HT1080 cells [3]; [16]): 2.0
Cytotoxicity score (HT1080 cells [3]; [17]): 2.5
Cytotoxicity score (HT1080 cells [3]; [18]): 2.0
Cytotoxicity score (HT1080 cells [3]; [19]): 1.0
Cytotoxicity score (HT1080 cells [3]; [20]): 2.0
Cytotoxicity score (HT1080 cells [3]; [21]): 2.5
Cytotoxicity score (HT1080 cells [3]; [22]): 3.0
Cytotoxicity score (HT1080 cells [3]; [23]): 2.0
Cytotoxicity score (HT1080 cells [3]; [24]): 2.0
β-gal activity (HT1080 cells [4]; [15]): 31.1 mU/well
β-gal activity (HT1080 cells [4]; [16]): 29.1 mU/well
β-gal activity (HT1080 cells [4]; [17]): 34.9 mU/well
β-gal activity (HT1080 cells [4]; [18]): 21.5 mU/well
β-gal activity (HT1080 cells [4]; [19]): 6.8 mU/well
β-gal activity (HT1080 cells [4]; [20]): 76.5 mU/well
β-gal activity (HT1080 cells [4]; [21]): 64.6 mU/well
β-gal activity (HT1080 cells [4]; [22]): 72.9 mU/well
β-gal activity (HT1080 cells [4]; [23]): 10.9 mU/well
β-gal activity (HT1080 cells [4]; [24]): 1.3 mU/well

protamine
Cytotoxicity score (HeLa cells [1]; [25]): 1.5
Cytotoxicity score (HeLa cells [1]; [26]): 0.5
Cytotoxicity score (HeLa cells [1]; [27]): 0.5
Cytotoxicity score (HeLa cells [1]; [28]): 0.5
Cytotoxicity score (HeLa cells [1]; [29]): 0.5
Cytotoxicity score (HeLa cells [1]; [30]): 3.0
Cytotoxicity score (HeLa cells [1]; [31]): 1.0
Cytotoxicity score (HeLa cells [1]; [32]): 0.5
Cytotoxicity score (HeLa cells [1]; [33]): 0.5
Cytotoxicity score (HeLa cells [1]; [34]): 0.5
β-gal activity (HeLa cells [2]; [25]): 30.4 mU/well
β-gal activity (HeLa cells [2]; [26]): 9.8 mU/well
β-gal activity (HeLa cells [2]; [27]): 4.8 mU/well
β-gal activity (HeLa cells [2]; [28]): 0.9 mU/well
β-gal activity (HeLa cells [2]; [29]): 0.1 mU/well
β-gal activity (HeLa cells [2]; [30]): 46.2 mU/well
β-gal activity (HeLa cells [2]; [31]): 26.3 mU/well
β-gal activity (HeLa cells [2]; [32]): 10.1 mU/well
β-gal activity (HeLa cells [2]; [33]): 3.1 mU/well
β-gal activity (HeLa cells [2]; [34]): 0.5 mU/well
effect of enhancer on nucleic-acid-transfecting performance and cytotoxicity, in words (HeLa cells [2]): excellent effects
Cytotoxicity score (HT1080 cells [3]; [25]): 1.5
Cytotoxicity score (HT1080 cells [3]; [26]): 1.5
Cytotoxicity score (HT1080 cells [3]; [27]): 1.0
Cytotoxicity score (HT1080 cells [3]; [28]): 0.5
Cytotoxicity score (HT1080 cells [3]; [29]): 0.5
Cytotoxicity score (HT1080 cells [3]; [30]): 2.5
Cytotoxicity score (HT1080 cells [3]; [31]): 2.0
Cytotoxicity score (HT1080 cells [3]; [32]): 2.0
Cytotoxicity score (HT1080 cells [3]; [33]): 2.0
Cytotoxicity score (HT1080 cells [3]; [34]): 1.0
β-gal activity (HT1080 cells [4]; [25]): 79.3 mU/well
β-gal activity (HT1080 cells [4]; [26]): 61.5 mU/well
β-gal activity (HT1080 cells [4]; [27]): 23.1 mU/well
β-gal activity (HT1080 cells [4]; [28]): 4.1 mU/well
β-gal activity (HT1080 cells [4]; [29]): 2.7 mU/well
β-gal activity (HT1080 cells [4]; [30]): 103.9 mU/well
β-gal activity (HT1080 cells [4]; [31]): 103.9 mU/well
β-gal activity (HT1080 cells [4]; [32]): 49.8 mU/well
β-gal activity (HT1080 cells [4]; [33]): 19.5 mU/well
β-gal activity (HT1080 cells [4]; [34]): 15.1 mU/well
